Results on 2 compounds are retold here after US12377054B2, “Targeting the innate immune system to induce long-term tolerance and to resolve macrophage accumulation in atherosclerosis” (Icahn School of Medicine at Mount Sinai, priority 2016, dated 2025).

In one data set the test system is myeloid cell compartment. Description: Flow cytometry of leukocytes and myeloid cell compartment in blood, spleen and allograft of heart transplant recipients. The class given is in vivo, mice. The following applies: six days after transplantation. The text has this:
The leukocyte population was profiled and, more extensively, the myeloid cell compartment, including neutrophils. Mo/MΦ and DC, in the blood, spleens and allografts of mice receiving placebo, oral rapamycin (Oral-Ra) and mTOR-HDL treatments, where the treatment regimen involved three intravenous mTOR-HDL injections, on the day of, as well as at two and five days post transplantation.
Mo/MΦ comprise two different subsets (Ly-6C^hi and Ly-6C^lo) with district migratory properties^23. Six days after transplantation, untreated and Oral-Ra-treated mice had increased numbers of accumulated myeloid cells in their blood, spleen and heart allografts (FIG. 2B and FIG. 9A). Further, the elevated Mo/MΦ populations contained high percentages of inflammatory Ly6C^hi monocytes (FIGS. 9A and 2B). […] The Mo/MΦ subset proportions in the spleen and transplanted organs reflected the levels in peripheral blood (FIG. 1E).
Mouse hearts were rinsed in situ with HBSS with 1% heparin. Explanted hearts were cut into small pieces and digested for 40 minutes at 37° C. with 400 U/ml collagenase IV (Sigma-Aldrich), 10 mM HEPES (Cellgro) and 0.01% DNase 1 (MP Biomedicals) in HBSS (Cellgro). Digested suspensions were passed through a nylon mesh and centrifuged, and the cell pellet was re-suspended in complete HBSS, stained and analyzed by flow cytometry (BD LSR-II; BD Biosciences).
For myeloid cell staining, fluorochrome-conjugated mAbs specific to mouse CD45 (clone 30-F11). CD11b (clone MI/70), CD11c (clone N418), F4/80 (clone CI:A3.1). Ly-6C (clone HK1.4) and corresponding isotype controls were purchased from eBioscience. Ly-6G (clone 1A8) mAb was purchased from Biolegend. F4/80 (clone CI:A3.1) was purchased from AbD Serotec. […] Flow cytometric analysis was performed on LSR II (BD Biosciences) and analyzed with FlowJo software (Tree Star, Inc.). Results are expressed as percentage of cells staining or cells counting (cells per milliliter) above background. mAbs were titered at regular intervals during the course of these studies to ensure the use of saturating concentrations. […]

The next data set deals with cardiac allografts. Description: Heart allograft survival (BALB/c into C57BL/6). The class given is in vivo, mice. To be noted: over a 50-day period, three doses 5 mg/kg rapamycin.
The conditions of data set [1]: mouse, in vivo, po.
In data set [2] the test system is RAW 264.7 cell line of murine macrophages. Description: In vitro BrdU incorporation in RAW 264.7 macrophages. To be noted: 24 hours. The data set is classed as cell-based. In general terms: Incorporation of labelled thymidine or its analogues reports DNA synthesis.

Experimental for cardiac allografts: Lastly, nanoimmunotherapy treatment's capacity to prevent organ rejection and prolong allograft survival was evaluated. Balb/c (H2^d) donor cardiac allografts were transplanted into fully allogeneic C57Bl/6 (H2) recipients treated with: (1) placebo. […] To assess graft survival, recipients underwent abdominal palpation until cardiac contractions completely ceased.
BALB/c hears were transplanted as fully vascularized heterotopic grafts into C57BL/6 mice as previously described^45. […] Cardiac allograft survival was subsequently assessed through daily palpation. Rejection was defined as the complete cessation of cardiac contraction and was confirmed by direct visualization at laparotomy. Graft survival was compared among groups using Kaplan-Meier survival analysis.

On to `CO[C@H]1C[C@@H]2CC[C@@H](C)[C@@](O)(O2)C(=O)C(=O)N2CCCC[C@H]2C(=O)O[C@H]([C@H](C)C[C@@H]2CC[C@@H](O)[C@H](OC)C2)CC(=O)[C@H](C)/C=C(\C)[C@@H](O)[C@@H](OC)C(=O)[C@H](C)C[C@H](C)/C=C/C=C/C=C/1C` [Oral-Ra, rapamycin], for which, in the data set with myeloid cell compartment, the “Ly-C^lo monocytes in blood” value is 13%, the “Ly-C^lo monocytes in heart allografts” value was 18% and the “Ly-C^lo monocytes in spleen” value is 44%. For the same compound, the allograft survival in the data set with cardiac allografts was 35%. Further, the kidney toxicity parameters entry in data set [1] is “statistical differences between Oral-Ra and mTOR-HDL”.

With `Cc1ccc(C)c(N/C=C/C(=O)c2ccccc2)c1` [compound 6877002, (2E)-1-phenyl-3-(2,5-dimethylanilino)-2-propen-1one], the “proliferation rate of RAW 264.7 macrophages” value in data set [2] is given as “did not affect the proliferation rate”.
